The results in this text go back to ChEMBL document CHEMBL3886525, “Pyrazolo[3,4-c]pyridine compounds and methods of use” (2016).

This assay deals with Serine/threonine-protein kinase pim-1 (Homo sapiens, UniProt P11309). In words: A fluorescent-labeled Pim-specific peptide substrate, was custom synthesized by American Peptide Company (Sunnyvale, Calif.). Reaction Buffer contained 10 mM HEPES, pH 7.2, 10 mM MgCl2, 0.01% Tween 20, 2 mM DTT.
Sequence of Serine/threonine-protein kinase pim-1 (P11309 whole entry): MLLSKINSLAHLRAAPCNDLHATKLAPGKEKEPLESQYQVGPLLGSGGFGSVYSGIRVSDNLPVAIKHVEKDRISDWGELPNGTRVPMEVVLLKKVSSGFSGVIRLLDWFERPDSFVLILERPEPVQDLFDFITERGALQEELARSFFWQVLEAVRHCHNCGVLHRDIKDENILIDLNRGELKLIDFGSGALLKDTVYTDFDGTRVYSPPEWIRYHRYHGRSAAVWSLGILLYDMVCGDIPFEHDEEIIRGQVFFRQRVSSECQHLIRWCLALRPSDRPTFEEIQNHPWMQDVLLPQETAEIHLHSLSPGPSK
As for `c1ccc(-c2n[nH]c3cnc(-c4cccnc4)cc23)cc1`, the Ki amounted to 9.65 nM.

`Cc1n[nH]c2cnc(-c3cccc(F)c3)cc12`: the affinity, expressed as Ki, was 2200 nM.

The compound `CCn1cc(-c2cc3c(-c4ccc(=O)n(CC5(C(N)=O)CC5)c4)n[nH]c3cn2)cn1` came in with a Ki of 1.41 nM.

`Fc1ccccc1-c1n[nH]c2cnc(-c3cccnc3)cc12` displayed a Ki of 122 nM.

Regarding `c1cncc(-c2cc3c(-c4cccc(N5CCOCC5)n4)n[nH]c3cn2)c1`, affinity was put at a Ki of 0.262 nM.

`c1cncc(-c2cc3c(-c4cccc(N5CCCCC5)n4)n[nH]c3cn2)c1` had a Ki of 0.415 nM.

`N[C@@H]1CCN(c2nc(-c3n[nH]c4cnc(-c5cccnc5)cc34)ccc2Br)C1`: the Ki was determined as 0.118 nM.

The Ki is a dissociation constant, usually derived from enzyme kinetics or from competition with a known ligand. Low values mean a stronger hold on the target, high ones a looser hold on the target.
